Test results: ChEMBL document CHEMBL1201862, “PubChem BioAssay data set” (2004)
Active and inactive are the calls of the source.

Assays:
Protein skinhead-1 = target: T1, Protein skinhead-1 (Caenorhabditis elegans, UniProt P34707); type: functional
T1 sequence (P34707 whole entry): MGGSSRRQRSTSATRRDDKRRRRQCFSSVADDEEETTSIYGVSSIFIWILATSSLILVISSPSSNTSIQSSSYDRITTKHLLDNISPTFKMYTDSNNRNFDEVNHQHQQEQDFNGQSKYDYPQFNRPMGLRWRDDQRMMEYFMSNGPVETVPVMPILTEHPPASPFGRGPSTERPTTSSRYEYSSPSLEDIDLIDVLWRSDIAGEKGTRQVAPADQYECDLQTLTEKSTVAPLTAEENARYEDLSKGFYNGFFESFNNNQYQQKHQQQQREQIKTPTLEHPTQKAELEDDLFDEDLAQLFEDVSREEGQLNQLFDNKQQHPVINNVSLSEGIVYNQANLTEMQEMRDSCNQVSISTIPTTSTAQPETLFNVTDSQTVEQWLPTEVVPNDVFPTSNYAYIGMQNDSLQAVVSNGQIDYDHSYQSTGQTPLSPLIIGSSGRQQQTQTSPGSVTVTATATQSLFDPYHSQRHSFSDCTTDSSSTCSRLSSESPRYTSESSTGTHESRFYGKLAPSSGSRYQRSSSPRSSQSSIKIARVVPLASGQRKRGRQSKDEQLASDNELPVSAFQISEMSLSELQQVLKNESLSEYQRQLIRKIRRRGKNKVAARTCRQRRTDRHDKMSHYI

[1] = target: T2, Replicative DNA helicase DnaB (Mycobacterium tuberculosis, UniProt P9WMR3); test: DnaB intein splicing inhibitors, dose response, biochemical, cell-free fluorescence (AID 449749); type: functional
T2 sequence (P9WMR3 whole entry): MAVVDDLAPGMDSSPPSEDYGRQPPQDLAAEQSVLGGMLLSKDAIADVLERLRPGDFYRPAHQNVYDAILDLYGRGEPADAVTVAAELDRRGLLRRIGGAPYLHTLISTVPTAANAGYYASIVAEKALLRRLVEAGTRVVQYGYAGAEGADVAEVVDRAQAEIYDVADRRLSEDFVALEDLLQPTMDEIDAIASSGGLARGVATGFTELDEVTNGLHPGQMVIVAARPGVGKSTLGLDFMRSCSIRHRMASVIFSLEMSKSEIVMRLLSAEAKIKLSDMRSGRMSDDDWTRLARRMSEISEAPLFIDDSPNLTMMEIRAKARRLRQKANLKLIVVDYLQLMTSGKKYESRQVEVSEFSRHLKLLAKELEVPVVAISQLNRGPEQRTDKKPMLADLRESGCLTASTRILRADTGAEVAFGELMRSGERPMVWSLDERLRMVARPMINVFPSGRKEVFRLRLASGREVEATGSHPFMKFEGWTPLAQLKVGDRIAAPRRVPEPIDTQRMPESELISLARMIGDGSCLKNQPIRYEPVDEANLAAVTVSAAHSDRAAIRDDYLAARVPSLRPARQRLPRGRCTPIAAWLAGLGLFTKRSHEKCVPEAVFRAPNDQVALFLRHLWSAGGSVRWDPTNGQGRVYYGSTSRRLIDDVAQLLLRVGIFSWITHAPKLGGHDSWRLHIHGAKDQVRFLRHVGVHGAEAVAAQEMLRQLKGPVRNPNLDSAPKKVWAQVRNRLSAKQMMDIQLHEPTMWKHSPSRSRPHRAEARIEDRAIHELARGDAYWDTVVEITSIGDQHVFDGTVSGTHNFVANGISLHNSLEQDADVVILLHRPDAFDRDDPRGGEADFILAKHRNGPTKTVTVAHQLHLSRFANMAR

Protein RecA = target: T3, Protein RecA (Mycobacterium tuberculosis, UniProt P9WHJ3); test: Fluorescence Cell-Free Homogeneous Dose Retest to Identify Inhibitors of RecA-Intein Splicing Activity. [Related pubchem assays (depositor defined):AID2097, AID2223, AID489010, AID492950]; type: functional
T3 sequence (P9WHJ3 whole entry): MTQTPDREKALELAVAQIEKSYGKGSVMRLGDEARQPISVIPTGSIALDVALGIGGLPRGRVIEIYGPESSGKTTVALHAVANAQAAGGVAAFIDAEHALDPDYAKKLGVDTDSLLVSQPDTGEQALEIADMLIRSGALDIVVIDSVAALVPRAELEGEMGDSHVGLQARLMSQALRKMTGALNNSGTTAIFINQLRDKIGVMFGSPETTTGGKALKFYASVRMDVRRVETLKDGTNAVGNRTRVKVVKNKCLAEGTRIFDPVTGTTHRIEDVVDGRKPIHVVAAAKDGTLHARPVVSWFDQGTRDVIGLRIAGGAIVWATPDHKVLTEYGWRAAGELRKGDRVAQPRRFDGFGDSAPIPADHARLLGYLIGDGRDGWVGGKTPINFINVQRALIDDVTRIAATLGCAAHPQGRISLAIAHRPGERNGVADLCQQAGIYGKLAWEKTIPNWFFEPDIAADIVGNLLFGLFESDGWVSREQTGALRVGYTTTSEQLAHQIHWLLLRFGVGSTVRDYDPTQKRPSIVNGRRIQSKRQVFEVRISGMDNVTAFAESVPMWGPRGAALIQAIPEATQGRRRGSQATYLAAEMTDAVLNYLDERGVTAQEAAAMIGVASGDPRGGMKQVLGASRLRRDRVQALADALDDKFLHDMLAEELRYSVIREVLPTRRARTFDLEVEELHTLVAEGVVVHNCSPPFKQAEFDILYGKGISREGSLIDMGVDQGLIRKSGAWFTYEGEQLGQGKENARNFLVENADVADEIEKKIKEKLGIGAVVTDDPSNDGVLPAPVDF

cells [2] = type: functional, cell-based
cells [3] = type: functional, cell-based; remark: listed apart in the source
[4] = Luminescence Cell-Based Dose Response HTS to Identify Activators of Luciferase Translation or Activity in H4 […] Cells. [Related pubchem assays: 1829 (Project Summary), 1814 (Primary HTS)]; type: functional
[5] = Luminescence Cell-Based Dose Confirmation HTS to Identify Activators of 5'UTR Stem-Loop Driven Alpha-Synuclein mRNA Translation in H4 Neuroglioblastoma Cells. [Related pubchem assays: 1829 (Project Summary), 1814 (Primary HTS)]; type: functional
[6] = HepG2 cell cytotoxicity, dose response, cytotoxicity control for Shn3 inhibitor project, CellTiter-Glo, cherry-picked (AID 624134); type: functional, cell-based
[7] = control 3'UTR Renilla luciferase suppression, dose response, counter-screen for Shn3 inhibitor project, cell-based, Clone20-Shn3RL, cherry-picked (AID 624133); type: functional
[8] = Shn3 3'UTR reporter inhibitors, dose response, cell-based, Clone20 osteoblasts, firefly luciferase, cherry-picked (AID 624132); type: functional;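 also: firefly luciferase luminescence from reporter carrying the Shn3 3'UTR in osteoblasts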
H4 = test: Luminescence Cell-Based Dose Response HTS to Identify Activators of 5'UTR Stem-Loop Driven Prion Protein mRNA Translation in H4 Neuroglioblastoma Cells. [Related pubchem assays: 1829 (Project Summary), 1814 (Primary HTS)]; type: functional; conditions: Homo sapiens
[9] = target: T4, Polyadenylate-binding protein 1 (Homo sapiens, UniProt P11940); test: PABP1 MLLE–PAM2 interaction inhibitors, dose response, miRNA deadenylation inhibitor project, biochemical, fluorescence polarization, Cy5-PAM2 peptide, secondary (AID 602260); type: functional; conditions: read-out: IC50_Mean
T4 sequence (P11940 whole entry): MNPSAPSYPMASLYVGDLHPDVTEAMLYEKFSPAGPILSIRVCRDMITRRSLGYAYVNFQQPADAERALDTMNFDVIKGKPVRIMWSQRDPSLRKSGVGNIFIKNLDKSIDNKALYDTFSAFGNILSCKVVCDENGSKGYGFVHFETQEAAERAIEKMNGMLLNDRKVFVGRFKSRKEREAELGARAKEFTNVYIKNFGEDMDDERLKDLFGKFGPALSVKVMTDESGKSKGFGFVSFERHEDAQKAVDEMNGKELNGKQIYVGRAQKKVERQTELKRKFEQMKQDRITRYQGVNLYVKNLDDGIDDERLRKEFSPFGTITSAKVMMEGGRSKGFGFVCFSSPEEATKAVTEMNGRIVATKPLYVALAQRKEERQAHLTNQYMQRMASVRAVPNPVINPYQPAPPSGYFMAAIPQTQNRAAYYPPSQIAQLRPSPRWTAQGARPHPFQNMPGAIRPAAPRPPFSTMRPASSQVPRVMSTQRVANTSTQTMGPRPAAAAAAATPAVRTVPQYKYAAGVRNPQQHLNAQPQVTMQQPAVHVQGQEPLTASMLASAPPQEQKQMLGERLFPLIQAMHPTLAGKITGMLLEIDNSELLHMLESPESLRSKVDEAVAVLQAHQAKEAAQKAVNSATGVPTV

[10] = target: T4, Polyadenylate-binding protein 1; test: PABP1 MLLE–PAM2 binding inhibitor potency, dose response, biochemical, fluorescence polarization, FITC-PAM2 peptide (AID 602259); type: functional; conditions: read-out: IC50_Mean
Fatty acid synthase [11] = target: T5, Fatty acid synthase (Homo sapiens, UniProt P49327); test: FAS thioesterase domain inhibitors, dose response, biochemical, endpoint fluorescence intensity, uHTS hits (AID 624327); type: functional;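 also: fluorescence from hydrolysis of an O-methyl fluorescein acyl ester substrate by the enzyme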
T5 sequence (P49327 whole entry, the tested form may be a part): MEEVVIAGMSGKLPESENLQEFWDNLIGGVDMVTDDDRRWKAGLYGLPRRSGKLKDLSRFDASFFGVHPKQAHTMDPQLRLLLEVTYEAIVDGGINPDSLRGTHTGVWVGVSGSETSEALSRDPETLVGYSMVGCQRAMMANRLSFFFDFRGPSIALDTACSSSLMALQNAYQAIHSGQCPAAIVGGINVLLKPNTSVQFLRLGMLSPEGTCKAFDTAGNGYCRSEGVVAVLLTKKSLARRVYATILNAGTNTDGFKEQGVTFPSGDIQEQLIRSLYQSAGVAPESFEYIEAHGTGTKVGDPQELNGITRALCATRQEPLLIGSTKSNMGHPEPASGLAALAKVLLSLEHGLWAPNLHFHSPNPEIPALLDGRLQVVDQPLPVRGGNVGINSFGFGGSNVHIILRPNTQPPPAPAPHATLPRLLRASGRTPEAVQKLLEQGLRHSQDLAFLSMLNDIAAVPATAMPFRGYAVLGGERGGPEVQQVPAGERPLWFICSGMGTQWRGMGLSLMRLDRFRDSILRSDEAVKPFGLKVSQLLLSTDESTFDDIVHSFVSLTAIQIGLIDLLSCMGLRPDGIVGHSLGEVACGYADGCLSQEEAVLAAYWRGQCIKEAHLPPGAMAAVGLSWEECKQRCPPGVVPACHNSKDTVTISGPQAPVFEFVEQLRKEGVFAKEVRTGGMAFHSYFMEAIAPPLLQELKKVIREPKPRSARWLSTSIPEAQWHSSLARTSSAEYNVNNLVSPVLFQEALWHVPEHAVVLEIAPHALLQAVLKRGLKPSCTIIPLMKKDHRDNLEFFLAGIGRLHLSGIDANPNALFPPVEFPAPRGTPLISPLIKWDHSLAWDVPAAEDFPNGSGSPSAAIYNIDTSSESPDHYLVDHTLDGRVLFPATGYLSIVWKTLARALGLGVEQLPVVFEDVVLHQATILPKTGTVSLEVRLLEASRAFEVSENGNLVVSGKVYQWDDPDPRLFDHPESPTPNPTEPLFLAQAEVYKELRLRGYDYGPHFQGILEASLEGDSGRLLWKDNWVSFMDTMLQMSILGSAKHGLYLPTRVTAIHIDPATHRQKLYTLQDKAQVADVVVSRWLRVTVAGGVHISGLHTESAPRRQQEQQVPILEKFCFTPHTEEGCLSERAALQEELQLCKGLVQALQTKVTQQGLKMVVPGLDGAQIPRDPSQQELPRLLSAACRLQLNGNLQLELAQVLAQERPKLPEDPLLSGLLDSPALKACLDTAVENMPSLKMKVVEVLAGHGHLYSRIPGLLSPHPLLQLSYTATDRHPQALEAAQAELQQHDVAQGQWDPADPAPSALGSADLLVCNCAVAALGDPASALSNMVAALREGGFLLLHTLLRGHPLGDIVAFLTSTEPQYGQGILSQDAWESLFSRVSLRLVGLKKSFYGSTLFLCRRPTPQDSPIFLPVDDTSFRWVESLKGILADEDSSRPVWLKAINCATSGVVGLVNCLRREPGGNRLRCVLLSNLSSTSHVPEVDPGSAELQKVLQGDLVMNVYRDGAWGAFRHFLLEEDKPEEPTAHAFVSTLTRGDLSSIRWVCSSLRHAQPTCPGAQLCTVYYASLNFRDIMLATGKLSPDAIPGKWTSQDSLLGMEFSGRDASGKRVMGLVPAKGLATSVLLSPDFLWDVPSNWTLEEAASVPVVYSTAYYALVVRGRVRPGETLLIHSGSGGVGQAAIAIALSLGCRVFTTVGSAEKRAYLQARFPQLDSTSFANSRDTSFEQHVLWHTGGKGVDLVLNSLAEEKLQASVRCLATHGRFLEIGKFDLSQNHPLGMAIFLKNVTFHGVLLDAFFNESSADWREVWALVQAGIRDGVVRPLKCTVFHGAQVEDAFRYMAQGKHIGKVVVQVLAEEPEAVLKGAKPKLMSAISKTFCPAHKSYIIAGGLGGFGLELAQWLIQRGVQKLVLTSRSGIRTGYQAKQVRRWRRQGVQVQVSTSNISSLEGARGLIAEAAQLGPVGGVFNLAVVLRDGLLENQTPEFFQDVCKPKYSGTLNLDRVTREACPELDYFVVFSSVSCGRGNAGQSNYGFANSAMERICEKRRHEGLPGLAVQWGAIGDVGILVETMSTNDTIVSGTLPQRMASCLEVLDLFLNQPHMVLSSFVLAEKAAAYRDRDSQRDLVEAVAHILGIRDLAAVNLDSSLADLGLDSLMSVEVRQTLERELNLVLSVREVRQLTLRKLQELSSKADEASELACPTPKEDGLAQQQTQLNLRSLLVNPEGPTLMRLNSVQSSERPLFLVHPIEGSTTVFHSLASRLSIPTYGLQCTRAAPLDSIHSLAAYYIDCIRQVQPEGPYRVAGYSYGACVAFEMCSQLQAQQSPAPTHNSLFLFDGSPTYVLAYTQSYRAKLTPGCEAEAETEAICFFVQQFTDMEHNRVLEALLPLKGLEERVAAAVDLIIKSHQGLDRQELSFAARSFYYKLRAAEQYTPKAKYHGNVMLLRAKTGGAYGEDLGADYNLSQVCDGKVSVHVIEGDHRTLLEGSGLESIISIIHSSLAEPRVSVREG

Fatty acid synthase [12] = target: T5, Fatty acid synthase; test: FAS thioesterase domain inhibitors, dose response, biochemical, kinetic fluorescence intensity (AID 624326); type: functional;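 also: rate of fluorescence rise from hydrolysis of a fluorogenic O-methyl fluorescein ester substrate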
[13] = C. albicans growth with fluconazole, confirmation, fluorescence, retest (AID 2467); type: functional, cell-based
[14] = NIH-3T3 fibroblast cytotoxicity, dose response, cytotoxicity control, cell-based, fluorescence, Alamar Blue, secondary assay (AID 2327); type: functional;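 also: NIH-3T3 mouse fibroblasts cultured with fluconazole at 8 µg/mL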
[15] = target: T6, Heat shock factor protein 1 (Mus musculus, UniProt P38532); test: inhibition of MG132-induced HSE-luciferase signal, confirmation, cell-based, NIH3T3, luminescence, dose retest (AID 2382); type: functional;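 also: NIH3T3 fibroblasts with HSF1-driven luciferase reporter stressed by proteasome inhibitor MG132; luminescence from HSF1-driven luciferase expression after 8 hours of MG132 stress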
T6 sequence (P38532 whole entry): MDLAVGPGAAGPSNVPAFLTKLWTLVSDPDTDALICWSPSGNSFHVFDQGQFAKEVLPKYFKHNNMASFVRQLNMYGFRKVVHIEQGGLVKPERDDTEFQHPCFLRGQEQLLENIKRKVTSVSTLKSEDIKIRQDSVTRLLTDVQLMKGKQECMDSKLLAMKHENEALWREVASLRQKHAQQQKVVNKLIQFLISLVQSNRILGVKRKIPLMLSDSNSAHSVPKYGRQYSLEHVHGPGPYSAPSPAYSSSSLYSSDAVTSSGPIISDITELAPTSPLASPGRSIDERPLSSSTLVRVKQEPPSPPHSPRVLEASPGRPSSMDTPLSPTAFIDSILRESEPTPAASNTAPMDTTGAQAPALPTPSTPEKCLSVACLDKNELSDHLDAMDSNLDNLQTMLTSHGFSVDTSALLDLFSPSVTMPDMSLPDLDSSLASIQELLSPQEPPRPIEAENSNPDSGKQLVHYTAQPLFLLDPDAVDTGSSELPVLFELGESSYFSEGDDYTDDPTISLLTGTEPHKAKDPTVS

COC(=O)c1nc(-c2ccccc2)oc1N(C)C
IC50 (Protein skinhead-1): > 100 µM (inactive)

O=S(=O)(CCSc1nc2ccccc2s1)c1nc2ccccc2s1
AC50 [1]: 2.29 µM (active) | EC50 (Protein RecA): 2.22 µM (active) | EC50 (cells [2]): > 350 µM (not active) | EC50 (cells [3]): > 350 µM (not active)

Clc1ccc(Nc2nc3cccnc3s2)cc1
EC50 [4]: 0.333 µM (active) | EC50 [5]: 0.341 µM (active)

Cc1ccc(CC(=O)Nc2ccncc2)cc1
AC50 [6]: 3.99 µM (active) | AC50 [7]: 15.2 µM (active) | AC50 [8]: 2.39 µM (active)

Cc1nnsc1[S+]([O-])c1ccc(Br)cc1 (stereo not given)
EC50 (H4): > 120 µM (not active) | EC50 [4]: 6.67 µM (active) | EC50 [5]: 21.9 µM (active)

CC(CC(=O)Nc1nnc(C(C)(C)C)s1)c1ccccc1 (stereo not given)
IC50 [9]: > 66 µM (inactive) | IC50 [10]: > 66 µM (inactive)

O=C(Nc1ccccc1[N+](=O)[O-])c1ccc(S(=O)(=O)N2CCCC2)cc1
EC50 (H4): 14.6 µM (active) | EC50 [4]: 9.21 µM (active) | EC50 [5]: 10.8 µM (active)

O=C(COc1ncnc2ccccc12)Nc1ccc(Cl)c([N+](=O)[O-])c1
IC50 (Fatty acid synthase [11]): 8.42 µM (active) | IC50 (Fatty acid synthase [12]): 6.52 µM (active)

COC(=O)C1=C(C(=O)OC)[C@@H]2N(Cc3ccccc3)c3ccccc3[C@@]23C[C@@H](C(=O)OC)N(C(=O)c2ccc(Br)cc2)C3=N1
AC50 [6]: 34.8 µM (active) | AC50 [7]: 23.7 µM (active) | AC50 [8]: 8.52 µM (active)

CCCCNC(=O)CN1C(=O)c2cccc(N)c2C1=O
IC50 [9]: > 66 µM (inactive) | IC50 [10]: 31.6 µM (inactive)

c1ccc(P(c2ccccc2)c2ccccn2)cc1
IC50 [9]: > 66 µM (inactive) | IC50 [10]: > 66 µM (inactive)

CC(C)(C)NC(=O)/C(=C\C=C\c1ccccc1)NC(=O)c1ccc([N+](=O)[O-])cc1
IC50 (Fatty acid synthase [11]): 0.491 µM (active) | IC50 (Fatty acid synthase [12]): 0.462 µM (active)

O=[N+]([O-])c1cccc(-c2ccc(SCc3cccnc3)nn2)c1
IC50 (Fatty acid synthase [11]): 8.53 µM (active) | IC50 (Fatty acid synthase [12]): 8.99 µM (active)

NS(=O)(=O)c1ccc(NC(=S)NC(=O)c2ccc(-c3ccccc3)cc2)cc1
IC50 [9]: > 66 µM (inactive) | IC50 [10]: > 66 µM (inactive)

Cc1ccc2c(c1)sc(C)[n+]2CCCS(=O)(=O)[O-]
IC50 [9]: > 66 µM (inactive) | IC50 [10]: > 66 µM (inactive)

COc1cc(C)c(NC(=O)COc2cccc3c2OC(C)(C)C3)cc1OC
AC50 [6]: 65.7 µM (active) | AC50 [7]: 11.3 µM (active) | AC50 [8]: 7.06 µM (active)

O=C(NNS(=O)(=O)c1ccc([N+](=O)[O-])cc1)c1ccc2ccccc2c1O
IC50 (Fatty acid synthase [11]): 7.74 µM (active) | IC50 (Fatty acid synthase [12]): 6.99 µM (active)

C=C(C)CSc1ncc(-c2cccc(C(F)(F)F)c2)cn1
IC50 (Fatty acid synthase [11]): 13.3 µM (active) | IC50 (Fatty acid synthase [12]): 6.31 µM (active)

CCOC(=O)C1CCCN(C(=O)c2ccc3oc(CCc4ccccc4)nc3c2)C1 (stereo not given)
EC50 [13]: > 38 µM (not active) | EC50 (cells [2]): > 350 µM (not active) | EC50 (cells [3]): > 350 µM (not active) | EC50 [14]: > 150 µM (inactive)

C1=C(CCNc2[nH]cnc3ncnc2-3)CCCC1
EC50 (H4): 40 µM (active) | EC50 [4]: 20 µM (active) | EC50 [5]: 52.3 µM (active)

COc1cccc(OCCn2cc(C(C)=O)c3ccccc32)c1
AC50 [6]: 7.55 µM (active) | AC50 [7]: 7.82 µM (active) | AC50 [8]: 1.85 µM (active)

Cc1ccc(CN(CC(=O)NC2CCCC2)C(=O)CSc2nnc(COc3ccccc3)o2)cc1
IC50 [9]: > 66 µM (inactive) | IC50 [10]: > 66 µM (inactive)

CCN(CC)S(=O)(=O)c1ccc(N(C)Cc2cccc(OC)c2OC)nc1
AC50 [6]: 57.1 µM (active)

Cc1ccc(C2CCN(C(S)=NC(C)(C)C)C2)cc1 (stereo not given)
EC50 (H4): 62.4 µM (active) | EC50 [15]: > 195 µM (not active) | EC50 [4]: 18.1 µM (active) | EC50 [5]: 14.9 µM (active)

CC12CC3(C)CC(C)(C1)CC(C(=O)NC(=S)NC(C)(C)C)(C2)C3
IC50 [9]: > 66 µM (inactive) | IC50 [10]: > 66 µM (inactive)

NC(=NOC(=O)CCC1CCCC1)c1cccc([N+](=O)[O-])c1
IC50 (Fatty acid synthase [11]): 7.47 µM (active) | IC50 (Fatty acid synthase [12]): 4.54 µM (active)

CC(=O)c1ccc(NC(S)=NCCc2ccc(S(N)(=O)=O)cc2)cc1
IC50 [9]: > 66 µM (inactive) | IC50 [10]: > 66 µM (inactive)
